Measurements taken from ChEMBL document CHEMBL4373747 (ACS Med Chem Lett, 2020).
Active and inactive are the calls of the source. The calls are words filed in the database; no cut-off is given here.

What was measured:
[1] = Tmax in NSG mouse; assay type: ADME; conditions: in vivo
[2] = system: MDA-MB-468; test: Cytotoxicity against human MDA-MB-468 cells assessed as reduction in cell viability incubated for 72 hrs by cell-titer blue assay; assay type: functional, cell-based; conditions: MDA-MB-468, 72 h
[3] = system: MV4-11; test: Induction of apoptosis in human MV4-11 cells assessed as viable cells at 0.25 uM incubated for 18 hrs by annexin V FITC and PI based flow cytometry (reference value: 53.01 to 53.07 %); assay type: functional; conditions: Homo sapiens, MV4-11, 18 h; read-out: Activity
[4] = biological target: Histone deacetylase 1 (Homo sapiens, UniProt Q13547); test: Inhibition of recombinant full length human HDAC1 expressed in baculovirus infected Sf9 cells using FAM-RHKK-Ac as substrate incubated for 17 hrs by electrophoretic mobility shift assay
[5] = system: MV4-11; test: Induction of apoptosis in human MV4-11 cells assessed as late apoptotic cells at 0.25 uM incubated for 18 hrs by annexin V FITC and PI based flow cytometry (reference value: 9.2 to 9.63 %); assay type: functional
[6] = biological target: Histone deacetylase 4 (Homo sapiens, UniProt P56524); test: Inhibition of recombinant full length human HDAC4 expressed in baculovirus infected Sf9 cells using FAM-RHKK-TFAc as substrate incubated for 1.5 hrs by electrophoretic mobility shift assay
[7] = system: MV4-11; test: Induction of apoptosis in human MV4-11 cells assessed as viable cells at 4 uM incubated for 18 hrs by annexin V FITC and PI based flow cytometry (reference value: 53.01 to 53.07 %); assay type: functional; conditions: Homo sapiens, MV4-11, 18 h; read-out: Activity
[8] = system: MV4-11; test: Induction of apoptosis in human MV4-11 cells assessed as late apoptotic cells at 4 uM incubated for 18 hrs by annexin V FITC and PI based flow cytometry (reference value: 9.2 to 9.63 %); assay type: functional
[9] = Stability in CD-1 mouse hepatocytes assessed as compound remaining at 1 uM measured up to 6 hrs by LCMS analysis; assay type: ADME, cell-based, Hepatocyte; conditions: mouse, 6 h, 1 µM
[10] = biological target: Histone deacetylase (Homo sapiens) (UniProt Q13547+O15379+Q9UBN7+Q92769+Q9UQL6+Q8WUI4+Q9BY41+Q96DB2+P56524+Q9UKV0+Q969S8); test: Inhibition of HDAC in human MV4-11 cells assessed as […] in acetylated histone H3 at 0.1 to 10 uM incubated for 6 hrs by Western blot analysis; assay type: cell-based
[11] = system: MV4-11; test: Induction of apoptosis in human MV4-11 cells assessed as early apoptotic cells at 0.5 uM incubated for 18 hrs by annexin V FITC and PI based flow cytometry (reference value: 19.46 to 22.17 %); assay type: functional
[12] = Intrinsic clearance in ICR/CD1 mouse hepatocytes at 1 uM measured upto 120 mins by LCMS analysis; assay type: ADME, cell-based, Hepatocyte; conditions: 2 h
[13] = Stability in ICR/CD1 mouse hepatocytes assessed as half life at 1 uM measured upto 120 mins by LCMS analysis; assay type: ADME, cell-based, Hepatocyte; conditions: 2 h
[14] = system: MV4-11; test: Induction of apoptosis in human MV4-11 cells assessed as early apoptotic cells at 0.25 uM incubated for 18 hrs by annexin V FITC and PI based flow cytometry (reference value: 19.46 to 22.17 %); assay type: functional
[15] = biological target: Histone deacetylase 5 (Homo sapiens, UniProt Q9UQL6); test: Inhibition of recombinant full length human HDAC5 expressed in baculovirus infected Sf9 cells using FAM-RHKK-TFAc as substrate incubated for 3 hrs by electrophoretic mobility shift assay
[16] = system: HeLa; test: Cytotoxicity against human HeLa cells assessed as reduction in cell viability incubated for 72 hrs by cell-titer blue assay; assay type: functional, cell-based
[17] = biological target: T1, Histone deacetylase 7 (Homo sapiens, UniProt Q8WUI4); test: Inhibition of recombinant full length human HDAC7 expressed in baculovirus infected Sf9 cells using FAM-RHKK-TFAc as substrate incubated for 3 hrs by electrophoretic mobility shift assay
T1 sequence (Q8WUI4 whole entry): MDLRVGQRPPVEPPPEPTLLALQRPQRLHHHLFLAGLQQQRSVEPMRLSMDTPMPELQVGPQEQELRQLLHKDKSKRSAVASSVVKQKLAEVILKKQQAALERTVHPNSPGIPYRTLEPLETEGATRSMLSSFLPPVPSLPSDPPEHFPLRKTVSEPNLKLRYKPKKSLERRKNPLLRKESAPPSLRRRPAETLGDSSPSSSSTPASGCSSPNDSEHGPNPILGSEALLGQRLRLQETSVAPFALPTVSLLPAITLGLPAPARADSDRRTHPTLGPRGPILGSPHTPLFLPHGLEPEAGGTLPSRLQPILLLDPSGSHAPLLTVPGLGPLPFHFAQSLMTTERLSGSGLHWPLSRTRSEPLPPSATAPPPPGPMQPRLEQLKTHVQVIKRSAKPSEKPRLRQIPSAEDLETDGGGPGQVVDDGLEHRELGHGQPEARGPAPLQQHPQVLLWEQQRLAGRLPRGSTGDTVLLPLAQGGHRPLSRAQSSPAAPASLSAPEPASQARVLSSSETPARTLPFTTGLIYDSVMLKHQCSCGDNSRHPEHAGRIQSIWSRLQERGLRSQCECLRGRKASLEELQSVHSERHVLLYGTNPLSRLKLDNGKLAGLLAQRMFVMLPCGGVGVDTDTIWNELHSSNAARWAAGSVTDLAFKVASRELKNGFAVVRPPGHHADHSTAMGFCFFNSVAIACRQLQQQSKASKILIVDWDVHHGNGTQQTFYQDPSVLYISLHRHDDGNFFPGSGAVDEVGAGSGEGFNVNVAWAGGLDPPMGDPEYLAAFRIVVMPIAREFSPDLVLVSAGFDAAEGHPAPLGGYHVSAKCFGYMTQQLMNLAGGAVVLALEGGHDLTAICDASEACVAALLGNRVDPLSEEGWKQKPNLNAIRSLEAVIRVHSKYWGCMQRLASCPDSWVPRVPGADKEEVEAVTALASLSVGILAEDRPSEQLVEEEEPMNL

[18] = Efflux ratio of apparent permeability in human Caco2 cells incubated for 2 hrs by LC/MS analysis; assay type: ADME, cell-based, Caco-2; conditions: Caco-2
[19] = system: MV4-11; test: Induction of apoptosis in human MV4-11 cells assessed as late apoptotic cells at 0.5 uM incubated for 18 hrs by annexin V FITC and PI based flow cytometry (reference value: 9.2 to 9.63 %); assay type: functional

Sequence of Histone deacetylase 5 (Q9UQL6 whole entry): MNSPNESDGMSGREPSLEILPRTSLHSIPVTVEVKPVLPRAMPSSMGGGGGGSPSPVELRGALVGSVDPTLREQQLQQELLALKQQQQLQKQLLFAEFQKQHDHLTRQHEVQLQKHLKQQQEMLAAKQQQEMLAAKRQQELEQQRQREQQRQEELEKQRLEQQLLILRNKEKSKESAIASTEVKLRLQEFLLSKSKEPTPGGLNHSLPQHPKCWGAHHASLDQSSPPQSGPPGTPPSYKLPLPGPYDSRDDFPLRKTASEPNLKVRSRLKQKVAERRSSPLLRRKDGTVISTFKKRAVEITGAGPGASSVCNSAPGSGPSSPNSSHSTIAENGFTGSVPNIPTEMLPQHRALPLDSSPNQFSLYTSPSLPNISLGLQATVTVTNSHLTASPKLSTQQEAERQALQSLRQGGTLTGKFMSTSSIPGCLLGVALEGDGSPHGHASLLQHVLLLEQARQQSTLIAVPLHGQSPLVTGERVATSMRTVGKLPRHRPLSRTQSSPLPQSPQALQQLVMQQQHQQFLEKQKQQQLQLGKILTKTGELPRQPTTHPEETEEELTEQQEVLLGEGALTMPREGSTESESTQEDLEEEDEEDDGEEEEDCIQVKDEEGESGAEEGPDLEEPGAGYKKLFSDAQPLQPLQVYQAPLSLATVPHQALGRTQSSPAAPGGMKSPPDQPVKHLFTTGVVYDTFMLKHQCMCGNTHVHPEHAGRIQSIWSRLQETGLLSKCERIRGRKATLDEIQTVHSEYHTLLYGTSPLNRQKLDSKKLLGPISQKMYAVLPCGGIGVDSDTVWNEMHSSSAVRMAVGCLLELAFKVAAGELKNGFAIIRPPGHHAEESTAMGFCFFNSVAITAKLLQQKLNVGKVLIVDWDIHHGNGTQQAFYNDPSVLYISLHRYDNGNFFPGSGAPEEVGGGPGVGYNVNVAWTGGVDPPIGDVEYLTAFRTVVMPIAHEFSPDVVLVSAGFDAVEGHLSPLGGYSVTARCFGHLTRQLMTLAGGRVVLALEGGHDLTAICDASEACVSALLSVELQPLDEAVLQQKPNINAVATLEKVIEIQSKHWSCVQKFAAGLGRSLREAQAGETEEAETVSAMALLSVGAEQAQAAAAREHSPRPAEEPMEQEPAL
Sequence of Histone deacetylase 1 (Q13547 whole entry): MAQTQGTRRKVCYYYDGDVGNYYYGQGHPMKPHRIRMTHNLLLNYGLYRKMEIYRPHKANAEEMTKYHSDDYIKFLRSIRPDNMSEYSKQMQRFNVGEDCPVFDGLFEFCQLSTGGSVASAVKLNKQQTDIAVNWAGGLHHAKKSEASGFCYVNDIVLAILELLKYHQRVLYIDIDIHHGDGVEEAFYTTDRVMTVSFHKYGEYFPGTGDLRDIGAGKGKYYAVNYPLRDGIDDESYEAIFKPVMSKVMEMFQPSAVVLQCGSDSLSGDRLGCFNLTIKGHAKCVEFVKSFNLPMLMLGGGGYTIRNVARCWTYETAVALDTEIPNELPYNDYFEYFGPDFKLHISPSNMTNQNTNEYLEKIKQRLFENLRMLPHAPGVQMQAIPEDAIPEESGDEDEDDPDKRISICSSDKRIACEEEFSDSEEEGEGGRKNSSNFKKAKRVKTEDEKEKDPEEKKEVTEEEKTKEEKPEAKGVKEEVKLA
Sequence of Histone deacetylase 4 (P56524 whole entry): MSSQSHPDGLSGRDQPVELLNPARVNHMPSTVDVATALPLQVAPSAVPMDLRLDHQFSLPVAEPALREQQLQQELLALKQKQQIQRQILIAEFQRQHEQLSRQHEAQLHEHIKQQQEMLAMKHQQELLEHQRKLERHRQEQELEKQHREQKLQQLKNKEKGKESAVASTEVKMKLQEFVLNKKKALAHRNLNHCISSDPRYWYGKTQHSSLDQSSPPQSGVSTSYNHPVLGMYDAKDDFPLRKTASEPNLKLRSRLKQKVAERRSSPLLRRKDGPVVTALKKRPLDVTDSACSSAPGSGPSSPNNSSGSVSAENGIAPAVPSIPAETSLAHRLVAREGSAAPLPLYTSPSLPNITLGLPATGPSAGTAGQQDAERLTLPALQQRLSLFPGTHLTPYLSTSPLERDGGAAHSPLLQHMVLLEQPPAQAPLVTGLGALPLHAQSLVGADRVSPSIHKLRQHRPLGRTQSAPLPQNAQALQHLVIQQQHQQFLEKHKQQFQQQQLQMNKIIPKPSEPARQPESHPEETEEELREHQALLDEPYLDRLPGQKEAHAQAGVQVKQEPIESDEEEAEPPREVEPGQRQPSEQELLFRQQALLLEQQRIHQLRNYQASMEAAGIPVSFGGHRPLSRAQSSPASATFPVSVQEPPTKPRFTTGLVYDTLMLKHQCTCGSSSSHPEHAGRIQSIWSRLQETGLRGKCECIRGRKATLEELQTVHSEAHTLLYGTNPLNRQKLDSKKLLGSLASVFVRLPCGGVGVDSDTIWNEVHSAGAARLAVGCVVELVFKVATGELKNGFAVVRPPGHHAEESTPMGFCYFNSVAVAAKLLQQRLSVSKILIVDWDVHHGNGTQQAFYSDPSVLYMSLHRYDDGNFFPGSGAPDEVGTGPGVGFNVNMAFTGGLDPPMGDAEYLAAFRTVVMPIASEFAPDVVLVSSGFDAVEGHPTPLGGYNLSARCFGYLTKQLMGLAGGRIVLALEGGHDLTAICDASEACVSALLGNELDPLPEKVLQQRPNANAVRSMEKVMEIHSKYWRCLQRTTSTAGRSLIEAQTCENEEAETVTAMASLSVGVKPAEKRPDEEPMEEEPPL

CC(C)(C)c1ccc(C(=O)Nc2ccc(C(=O)NO)cc2)cc1
Tmax [1]: 8 h | IC50 [2]: > 50000 nM | viability at 0.25 µM [3]: 57.5% | IC50 [4]: 605 nM | Activity [5]: 8.74% | IC50 [6]: > 1000 nM | viability at 4 µM [7]: 16.3% | Activity [8]: 38.48% | Stability [9]: 20% | inhibition [10]: Active | Activity [11]: 20.69% | CLH [12]: 49.1 µL/min | t1/2 [13]: 0.472 h | Activity [14]: 17.82% | IC50 [15]: > 1000 nM | IC50 [16]: 2530 nM | IC50 [17]: > 1000 nM | efflux ratio at 2 h [18]: 0.64 | Activity [19]: 11.7%
